Measurements from ChEMBL document CHEMBL1148457, “Comparative molecular active site analysis (CoMASA). 1. An approach to rapid evaluation of 3D QSAR” (J Med Chem, 2004).
pKi: −log10 of the molar value.

target: T1, Corticosteroid-binding globulin (Homo sapiens, UniProt P08185); assay: Binding affinity to human CBG receptor (corticosteroid-binding globulins)
T1 sequence (P08185 whole entry): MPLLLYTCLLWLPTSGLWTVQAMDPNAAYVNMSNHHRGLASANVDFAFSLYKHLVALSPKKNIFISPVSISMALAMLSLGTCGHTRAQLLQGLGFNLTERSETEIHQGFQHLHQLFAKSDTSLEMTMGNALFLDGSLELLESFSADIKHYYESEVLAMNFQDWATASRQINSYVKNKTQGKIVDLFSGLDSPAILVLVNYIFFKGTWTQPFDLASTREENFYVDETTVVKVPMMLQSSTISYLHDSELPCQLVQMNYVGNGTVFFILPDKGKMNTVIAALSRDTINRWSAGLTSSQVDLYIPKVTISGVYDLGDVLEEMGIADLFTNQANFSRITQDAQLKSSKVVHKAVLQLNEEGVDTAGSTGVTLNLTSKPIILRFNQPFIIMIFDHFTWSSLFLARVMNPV

| Structure (SMILES) | pKi |
| --- | --- |
| CC(=O)[C@H]1CC[C@H]2[C@@H]3CC=C4C[C@@H](O)CC[C@]4(C)[C@H]3CC[C@]12C [PREGNENOLONE] | 5.23 |
| C[C@]12CC[C@H]3[C@@H](CCC4=CC(=O)CC[C@@]43C)[C@@H]1CC[C@@H]2C(=O)CO [DESOXYCORTICOSTERONE] | 7.65 |
| C[C@]12CC[C@H](O)C[C@@H]1CC[C@@H]1[C@@H]2CC[C@]2(C)[C@@H](O)CC[C@@H]12 [ANDROSTANEDIOL] | 5.00 |
| CC(=O)[C@H]1CC[C@H]2[C@@H]3CCC4=CC(=O)CC[C@]4(C)[C@H]3CC[C@]12C [PROGESTERONE] | 7.38 |
| C[C@]12CC[C@@H]3c4ccc(O)cc4CC[C@H]3[C@@H]1CCC2=O [ESTRONE] | 5.00 |
| C[C@]12CC[C@H]3[C@@H](CCC4=CC(=O)CC[C@@H]43)[C@@H]1CC[C@@H]2O [NANDROLONE] | 6.14 |
| CC(=O)[C@@]1(O)CC[C@H]2[C@@H]3CCC4=CC(=O)CC[C@]4(C)[C@H]3CC[C@@]21C [HYDROXYPROGESTERONE] | 7.74 |
| CC(=O)C1CCC2C3C[C@H](C)C4=CC(=O)CCC4(C)C3CCC12C (stereo partly specified) | 7.12 |
| C[C@]12C[C@H](O)[C@H]3[C@@H](CCC4=CC(=O)CC[C@@]43C)[C@@H]1CC[C@@H]2C(=O)CO (stereo in doubt; form 2) [CORTICOSTERONE] | 7.88 |
| C[C@]12C=CC(=O)C=C1CCC1[C@@H]2[C@@H](O)C[C@@]2(C)[C@H]1CC[C@]2(O)C(=O)CO (single isomer, unassigned) [PREDNISOLONE] | 7.51 |
| CC(=O)OCC(=O)[C@@]1(O)CC[C@H]2[C@@H]3CCC4=CC(=O)CC[C@]4(C)[C@H]3[C@@H](O)C[C@@]21C [HYDROCORTISONE ACETATE] | 7.55 |
| CC(=O)[C@@]1(O)[C@H](O)C[C@H]2[C@@H]3CCC4=CC(=O)CC[C@]4(C)[C@H]3CC[C@@]21C | 6.25 |
| C[C@]12CCC(=O)C=C1CC[C@@H]1[C@@H]2[C@@H](O)C[C@]2(C=O)[C@@H](C(=O)CO)CC[C@@H]12 [ALDOSTERONE] | 6.28 |
| C[C@]12CCC(=O)C=C1CC[C@@H]1[C@@H]2CC[C@]2(C)C(=O)CC[C@@H]12 [ANDROSTENEDIONE] | 5.76 |
| C[C@]12C[C@H](O)[C@H]3[C@@H](CCC4=CC(=O)CC[C@@]43C)[C@@H]1CC[C@@H]2C(=O)CO (stereo in doubt; form 1) [CORTICOSTERONE] | 7.20 |
| C[C@]12CC[C@@H]3c4ccc(O)cc4CC[C@H]3[C@@H]1CC[C@@H]2O [ESTRADIOL] | 5.00 |
| CC(=O)[C@H]1CC[C@H]2[C@@H]3CCC4=CC(=O)CC[C@@H]4[C@H]3CC[C@]12C | 6.82 |
| C[C@]12CCC(=O)C=C1CCC1[C@@H]2C(=O)C[C@@]2(C)[C@H]1CC[C@]2(O)C(=O)CO (single isomer, unassigned) [CORTISONE] | 6.89 |
| CC(=O)[C@H]1CC[C@H]2[C@@H]3CCC4=CC(=O)CC[C@]4(C)[C@H]3C(=O)C[C@]12C | 6.78 |
| C[C@]12CCC(=O)C=C1CC[C@@H]1[C@@H]2CC[C@@]2(C)[C@H]1CC[C@]2(O)C(=O)CO [CORTODOXONE] | 7.88 |
| C[C@@H]1C[C@@]2(C)C(=CC1=O)CC[C@H]1[C@@H]3CC[C@](O)(C(=O)CO)[C@@]3(C)C[C@H](O)[C@@]12F | 5.80 |
| CC1C[C@@]2(C)C(=CC1=O)CC[C@@H]1[C@@H]2C(=O)C[C@@]2(C)[C@H]1CC[C@]2(O)C(=O)CO (stereo partly specified) | 7.69 |
| C[C@]12CC[C@H]3[C@@H](CCC4=CC(=O)CC[C@@]43C)[C@@H]1CC[C@@H]2O [TESTOSTERONE] | 6.72 |
| C[C@]12CC[C@@H]3c4ccc(O)cc4CC[C@H]3[C@@H]1C[C@@H](O)[C@@H]2O [ESTRIOL] | 5.00 |
| CC(=O)[C@@]1(O)CC[C@H]2[C@@H]3CC[C@@H]4C[C@H](O)CC[C@]4(C)[C@H]3CC[C@@]21C [HYDROXYPREGNENOLONE] | 5.00 |
| C[C@]12CC[C@H](O)CC1=CC[C@@H]1[C@@H]2CC[C@]2(C)C(=O)CC[C@@H]12 [PRASTERONE] | 5.00 |
